From patent publication US20250129082A1, “N-1 Triazole Substituted Imidazoquinolines, Conjugates Thereof, and Methods” (Solventumn Intellectual Properties Company, priority 2021, published 2025)

Assays:
Assay type in all cases: cell-based
[1] = tested on: Human peripheral blood mononuclear cells (PBMC); test: Cytokine induction in human cells (PBMC), Ella Simple Plex ELISA; settings: 21-24 hours, tested 0.01-30 micromolar; for MEC to Induce Cytokine, IFN-alpha: lowest concentration inducing IFN-alpha at least 2× negative control; for MEC to Induce Cytokine, IFN-gamma: lowest concentration inducing IFN-gamma at least 2× negative control; for MEC to Induce Cytokine, TNF-alpha: lowest concentration inducing TNF-alpha at least 2× negative control
Description: Whole blood was obtained from healthy human donors and collected by venipuncture into vacutainer tubes or syringes containing EDTA. Human peripheral blood mononuclear cells (PBMC) were purified from the whole blood by density gradient centrifugation. Histopaque 1077 (15 mL, Sigma-Aldrich) was transferred to 6×50 mL sterile polypropylene conical tubes. The Histopaque was overlayed with 15-25 mL of blood diluted 1:2 in Hank's Balanced Salts Solution (HBSS) (Gibco, Life Technologies, Grand Island, NY). The tubes were then centrifuged at 1370 rpm for 30 minutes at 20° C., with no brake (400λg, GH 3.8A Rotor).
The interface (buffy coat) containing the PBMC was collected and placed in a new sterile 50 mL conical polypropylene centrifuge tube. The PBMC were mixed with an equal volume of HBSS (about 20 mL from the interface and about 20 mL of HBSS), and then centrifuged at 1090 rpm, 10 minutes, 20° C., with brake (270λg, GH 3.8A Rotor). After completing centrifugation, the cells were resuspended in 2-3 mL ACK Red blood cell lysis buffer (ammonium chloride potassium solution, Gibco, Life Technologies) and incubated for 2-5 minutes at 20° C. Next, HBSS (40 mL) was added to the cells, and the sample was centrifuged at 270×g for 10 minutes at 20° C. The supernatant was decanted, and the cell pellet was resuspended in 5 mL AIM V Medium (Gibco, Life Technologies). Cell aggregates and debris were removed by filtering the cell solution through a BD Falcon 70 micron nylon cell strainer (BD Biosciences, San Jose, CA).
The number of viable cells was determined by counting with a Moxi Z instrument (ORFLO Technologies, Ketchum, ID) or by using a hemacytometer. For determining cell viability with a hemacytometer, the cells were diluted 1/10 in 0.4% trypan blue and HBSS (specifically, 50 microliter of trypan blue+40 microliter of HBSS+10 microliter of cell solution were added to a microfuge tube and mixed). Ten microliters of the diluted cells were then applied to the hemacytometer, and the number of viable PBMC were determined by microscopy.
The PBMC sample was then resuspended in 96-well plates at a concentration of 8×10^5 cells/well in 0.1 mL of AIM-V medium. Each compound was solubilized in DMSO to create a 3 mM stock solution. The stock solution was then further diluted with AIM-V medium to prepare the serial dilutions. The diluted compound (100 microliters) was then transferred to the PBMCs to produce testing sets with final compound concentrations of 30, 10, 3.3, 1.1, 0.37, 0.12, 0.04, 0.01 micromolar. The plates also had both positive and negative controls. The negative control wells contained only AIM-V medium with no example compound. The positive control wells contained a control set of imiquimod serially diluted to concentrations of 30, 10, 3.3, 1.1, 0.37, 0.12, 0.04, 0.01 micromolar. The concentrations used in the control set were selected to match the concentrations used in the testing set. The plates were then cultured at 37° C./5% CO2 for 21-24 hours. Cell-free supernatants were harvested by centrifuging the 96-well plates at 2100 rpm, 23° C. for 10 minutes. Approximately 160 microliters of the supernatant was then stored in a NUNC 96-well plate, covered with the compression cap and stored at −80° C. until the cytokine analysis was done.
Cytokine levels (human IFN-alpha multisubtype, human IFN-gamma, and human TNF-alpha) were measured in picograms/mL by Ella Simple Plex ELISA (ProteinSimple, San Jose, CA) according to the manufacturer's instructions.
Specifically, the minimum effective concentration of each compound (micromolar) was determined as the lowest concentration of the compound that induced a measured cytokine response at a level ([…]) that was at least 2× greater than that observed with the negative control wells.

[2] = molecular target: T1, human TLR7 (Homo sapiens, UniProt Q9NYK1); test: TLR activation and specificity, HEK-BLUE-hTLR7 SEAP reporter cells; settings: 16-20 hours, lowest concentration giving SEAP response at least 2× vehicle control, tested 0.01-30 micromolar
T1 construct: host or cells: HEK293 (HEK-BLUE-hTLR7)
T1 sequence (Q9NYK1 27-1049): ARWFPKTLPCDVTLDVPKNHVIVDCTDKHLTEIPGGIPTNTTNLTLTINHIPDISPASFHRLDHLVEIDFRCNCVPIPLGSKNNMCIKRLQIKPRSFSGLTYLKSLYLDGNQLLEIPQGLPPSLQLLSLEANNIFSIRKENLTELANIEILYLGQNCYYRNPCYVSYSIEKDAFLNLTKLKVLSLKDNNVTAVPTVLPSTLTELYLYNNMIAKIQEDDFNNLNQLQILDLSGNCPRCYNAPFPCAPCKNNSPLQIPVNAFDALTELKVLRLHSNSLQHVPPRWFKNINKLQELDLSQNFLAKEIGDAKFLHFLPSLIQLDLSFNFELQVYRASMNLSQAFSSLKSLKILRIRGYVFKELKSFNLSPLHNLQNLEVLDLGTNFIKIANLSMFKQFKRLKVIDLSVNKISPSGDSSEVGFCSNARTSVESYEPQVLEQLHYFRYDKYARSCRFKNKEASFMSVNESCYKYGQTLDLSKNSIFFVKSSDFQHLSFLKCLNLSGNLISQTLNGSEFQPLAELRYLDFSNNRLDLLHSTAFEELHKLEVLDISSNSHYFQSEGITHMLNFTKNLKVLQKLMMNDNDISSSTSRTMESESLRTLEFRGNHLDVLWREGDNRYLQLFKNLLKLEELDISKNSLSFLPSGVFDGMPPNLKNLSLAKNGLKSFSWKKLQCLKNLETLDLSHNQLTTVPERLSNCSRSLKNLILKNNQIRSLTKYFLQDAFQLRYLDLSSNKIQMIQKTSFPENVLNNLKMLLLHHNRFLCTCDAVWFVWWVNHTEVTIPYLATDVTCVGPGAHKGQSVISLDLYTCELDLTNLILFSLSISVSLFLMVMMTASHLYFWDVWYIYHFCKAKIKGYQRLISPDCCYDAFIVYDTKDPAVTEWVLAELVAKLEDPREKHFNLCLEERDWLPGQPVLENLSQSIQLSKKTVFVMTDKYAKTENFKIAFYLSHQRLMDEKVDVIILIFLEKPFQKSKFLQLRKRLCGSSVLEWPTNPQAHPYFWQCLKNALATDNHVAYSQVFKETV
Description: (§1) HEK-BLUE-hTLR7 or hTLR8 reporter cells were obtained from InvivoGen, San Diego, CA. According to the manufacturer's description, these reporter cells were prepared by co-transfection of HEK293 cells with an inducible secreted embryonic alkaline phosphatase (SEAP) reporter gene and either the human TLR7 or TLR8 gene. The SEAP reporter gene was placed under the control of an IFN-β minimal promoter fused to five NF-κB and AP-1-binding sites. In the presence of a TLR ligand, activation of NF-κB and AP-1 occurs, resulting in a corresponding increase in SEAP levels.
(§2) In the assay, the HEK cells were grown and maintained using standard cell culture techniques in a growth medium that contained Dulbecco's Modified Eagle Medium (ThermoFisher Scientific Incorporated, Waltham, MA) supplemented with 1% penicillin/streptomycin and 10% heat-inactivated Gibco fetal bovine serum (ThermoFisher Scientific). Each compound was solubilized in DMSO to create a 3 mM stock solution. The stock solution was then further diluted with the growth medium to prepare serial dilutions. Each test compound was tested at a concentration of 30, 10, 3.3, 1.1, 0.37, 0.12, 0.04, and 0.01 micromolar using a 96-well format with 5×10^4 cells and 200 microliters of growth medium per well.
(§3) For each compound, hTLR7, hTLR8, and their respective null control HEK cells were screened. DMSO serially diluted into the growth medium served as the vehicle control. Cell culture supernatants containing the SEAP reporter were collected after an incubation period of 16-20 hours in a cell culture incubator (37° C. and 5% CO2), and either analyzed immediately or stored at −80° C. SEAP levels were measured using the colorimetric enzyme assay (QUANTI-BLUE (InvivoGen) according to manufacturer's instructions.
(§4) Specifically, the minimum effective concentration of each compound (micromolar) was determined as the lowest concentration of the compound that produced a SEAP expression response at least 2× greater than that observed with the vehicle control wells.

[3] = molecular target: T2, human TLR8 (Homo sapiens, UniProt Q9NR97); test: TLR activation and specificity, HEK-BLUE-hTLR8 SEAP reporter cells; settings: 16-20 hours, lowest concentration giving SEAP response at least 2× vehicle control, tested 0.01-30 micromolar
T2 construct: host or cells: HEK293 (HEK-BLUE-hTLR8)
T2 sequence (Q9NR97 27-1041): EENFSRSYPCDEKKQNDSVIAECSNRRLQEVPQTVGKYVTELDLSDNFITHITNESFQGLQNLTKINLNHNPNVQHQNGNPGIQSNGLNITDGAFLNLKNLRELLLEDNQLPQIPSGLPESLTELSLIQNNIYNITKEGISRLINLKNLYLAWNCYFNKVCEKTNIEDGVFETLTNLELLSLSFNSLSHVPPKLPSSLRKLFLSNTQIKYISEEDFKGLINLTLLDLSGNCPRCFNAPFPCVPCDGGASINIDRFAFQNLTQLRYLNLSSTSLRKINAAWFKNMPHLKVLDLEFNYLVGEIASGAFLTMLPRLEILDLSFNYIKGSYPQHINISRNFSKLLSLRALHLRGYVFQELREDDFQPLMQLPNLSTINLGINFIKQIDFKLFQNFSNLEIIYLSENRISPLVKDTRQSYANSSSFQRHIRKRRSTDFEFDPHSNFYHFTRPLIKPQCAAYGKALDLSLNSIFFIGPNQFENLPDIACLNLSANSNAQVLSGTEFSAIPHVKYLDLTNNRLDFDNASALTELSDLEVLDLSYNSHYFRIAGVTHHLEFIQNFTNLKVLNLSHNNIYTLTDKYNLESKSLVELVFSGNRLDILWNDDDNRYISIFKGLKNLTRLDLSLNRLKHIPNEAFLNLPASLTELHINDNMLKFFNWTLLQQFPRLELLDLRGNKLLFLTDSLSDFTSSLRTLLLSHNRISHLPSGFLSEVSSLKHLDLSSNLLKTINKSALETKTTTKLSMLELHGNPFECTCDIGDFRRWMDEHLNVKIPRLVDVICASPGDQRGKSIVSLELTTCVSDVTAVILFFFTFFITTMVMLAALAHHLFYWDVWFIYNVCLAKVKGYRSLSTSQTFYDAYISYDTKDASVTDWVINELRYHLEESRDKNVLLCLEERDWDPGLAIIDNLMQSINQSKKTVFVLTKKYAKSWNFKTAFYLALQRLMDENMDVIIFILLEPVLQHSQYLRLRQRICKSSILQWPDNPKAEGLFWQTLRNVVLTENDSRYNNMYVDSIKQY
Description: as §1, §2, §3, §4

MEC to Produce TLR Activation, TLR 7 [2] [µM] | MEC to Produce TLR Activation, TLR 8 [3] [µM] | SMILES | MEC to Induce Cytokine, IFN-alpha [1] [µM] | MEC to Induce Cytokine, IFN-gamma [1] [µM] | MEC to Induce Cytokine, TNF-alpha [1] [µM]
≤0.01 | 10 | CCOC[C@H](Cc1ccc(OCCN=[N+]=[N-])cc1)n1cnc2c(N)nc3ccccc3c21 [Example 1, (S)-1-(1-(4-(2-azidoethoxy)phenyl)-3-ethoxypropan-2-yl)-1H-imidazo[4,5-c]quinolin-4-amine] | ≤0.01 | ≤0.01 | ≤0.01
≤0.01 | 3.3 | CCOC[C@H](Cc1ccc(OCCn2cc(-c3ccccc3)nn2)cc1)n1cnc2c(N)nc3ccccc3c21 [Example 2, (S)-1-(1-ethoxy-3-(4-(2-(4-phenyl-1H-1,2,3-triazol-1-yl)ethoxy)phenyl)propan-2-yl)-1H-imidazo[4,5-c]quinolin-4-amine] | ≤0.01 | ≤0.01 | ≤0.01
1.1 | >30 | CCOC[C@H](Cc1ccc(OCCCCCCCCCCCN=[N+]=[N-])cc1)n1cnc2c(N)nc3ccccc3c21 [Example 3, (S)-1-(1-(4-((11-azidoundecyl)oxy)phenyl)-3-ethoxypropan-2-yl)-1H-imidazo[4,5-c]quinolin-4-amine] | 3.3 | >30 | 1.1
3.3 | 3.3 | CCOC[C@H](Cc1ccc(OCCCCCCCCCCCn2cc(-c3ccccc3)nn2)cc1)n1cnc2c(N)nc3ccccc3c21 [Example 4, (S)-1-(1-ethoxy-3-(4-((11-(4-phenyl-1H-1,2,3-triazol-1-yl)undecyl)oxy)phenyl)propan-2-yl)-1H-imidazo[4,5-c]quinolin-4-amine] | 3.3 | 10 | 3.3
